This note sets out measurements from patent US20030166723A1, “Ige production inhibitors” (priority 2000, published 2003).

For assay [1], the system named is spleen cells of NC/Nga mice. An excerpt: In this example, the effect of GLA to inhibit IgE production in vitro was studied by an in vitro class switch induction system using spleen cells of the mice. First, spleen cells were collected from NC/Nga mice by the following method. An 8-week-old NC/Nga mouse bred in SPF environment, presenting neither dermatitis-like feature nor hyperIgE syndrome was sacrificed by dislocation fracture of the cervical vertebrae and the spleen was extracted in a sterile condition. The extracted spleen was placed in RPMI-1640 medium (about 3 ml) in a dish, and separated into individual cells with a sterilized pincette. The separated cells were placed in a 15-ml Falcon tube and the membrane of the spleen was removed. Then, the cells suspended in the medium were centrifuged at 1,500 rpm for 5 minutes to recover only the cells. Subsequently, to remove erythrocytes, the recovered cells were suspended in 10 ml of sterilized lysis buffer at 4° C. to cause hemolysis, followed by washing twice with sterilized PBS produced by Milli-Q at 4° C. to collect spleen cells. A portion of the obtained spleen cells was stained with Trypan Blue (Trypan Blue Stain 0.4%: manufactured by LIFE TECHNOLOGIES, INC.) and counted on a hemacytometer. Then, measurement of IgE amount in the culture supernatant in a class switch induction system was performed by the following procedure. Based on the number of cells counted by the above-mentioned method, the cells were inoculated on a plate (96-well cell culture microtest plate, with flat bottom, low evaporation type, made of polystyrene with a lid: manufactured by FALCON CO.) to a concentration of 2×10^5 cells/ml per well. The medium used here contained cytokine IL-4 (100 U/ml) and LPS (10 μg/ml) as stimulants for the IgE class switch induction. To observe the influences of GLA before, during, or after the stimulation for class switch, GLA was added to the media in various concentrations (0, 10, 20, 40, 60, 80, 120, 160 μg/ml) after 0 hour (at the start of culture), 48 hours, or 72 hours from the start. Here, the addition of GLA was performed by diluting it with ethanol to appropriate concentrations and making the final concentration of ethanol to be 0.1%. All the cultures were performed at 37° C. in a 5%-CO2 incubator and the cultured supernatants were recovered after 7 days (after 168 hours). The IgE amounts thereof were measured by a sandwich ELISA method.

A further assay relates to IgE. To be noted: for total IgE amount in plasma compared with control group: stomach tube. The procedure: As the model animal, 5-week-old male NC/Nga mice bred in SPF environment, presenting neither dermatitis-like feature nor hyperIgE syndrome were used. To these mice, GLA ethyl ester (degree of purification of 95.98%: manufactured by Idemitsu Material Co., Ltd.) was administered by a stomach tube method in a dosage of 50 mg/individual once every other day starting from 5-week-old to obtain a GLA-administered group composed of 6 animals. On the other hand, as a control, PBS (phosphate buffered saline) instead of GLA ethyl ester was likewise administered in a dosage of 50 μg/individual to obtain a control group composed of 6 animals.
In addition, blood was collected from the above-mentioned mice at the time of starting the administration (5 weeks old), and at 7, 9, and 11 weeks old and was centrifuged at 1,500 rpm for 10 minutes to obtain plasma. Then, total IgE amount in the plasma was measured by a sandwich ELISA method. A concrete method thereof is described below.
Rat anti-murine IgE monoclonal antibody (manufactured by PharMingen Co.) diluted to […] with coating buffer (0.1 M NaHCO3, 0.5 M NaCl, pH 8.5) was added to each well of a plate (NUNC-IMMUNOPLATE, manufactured by NUNC Inc., A/S) in an amount of 50 μl, and left to stand at 4° C. overnight or at 37° C. for 3 hours, followed by washing the wells with PBS/Tween (PBS, 0.05% Tween-20, pH 7.5) 3 times.
To each well, 200 μl of blocking buffer (PBS containing 2% skimmed milk) was added and incubated at 37° C. for 3 hours, followed by washing the wells with PBS/Tween 3 times.
Then, the above-mentioned murine plasma was diluted 100 folds with dilution buffer (PBS, 2% skimmed milk, 0.25% SDS) to prepare a sample for measurement. Furthermore, murine IgE standard (manufactured by PharmMingen Co.) was diluted with dilution buffer to prepare a standard for measurement.
The samples for measurement and standard were added to each well in amounts of 50 μl/well and incubated at 37° C. for 3 hours, followed by washing the wells with PBS/Tween 3 times.
Biotinylated rat anti-murine IgE antibody (manufactured by PharmMingen Co.) diluted to 2 μg/ml with dilution buffer was added to each well in an amount of 50 μl and incubated at 37° C. for about 3 hours, followed by washing the wells with PBS/Tween 6 times.
Furthermore, alkaline phosphatase-labeled Streptoavidin (manufactured by BioSource, Inc.) diluted to 1.000 folds with dilution buffer was added to the wells in an amount of 50 μl/well and incubated at 37° C. for 1 hour, followed by washing the wells with PBS/Tween 6 times.
As the model animal, 5-week-old male NC/Nga mice bred in SPF environment, presenting neither dermatitis-like feature nor hyperIgE syndrome were used. The animals were divided into each group composed of 10 animals. For the GLA-administered group, GLA ethyl ester (degree of purification of 95.98%: manufactured by Idemitsu Material Co., Ltd.) was administered by a stomach tube method in a dosage of 0.1 mg/individual once every other day. Administration of GLA was performed by using, olive oil containing little essential fatty acid which was added to 0.1 mg of GLA ethyl ester to make 50 μl. For the control group, 50 μl of olive oil alone was likewise administered.
The disease score of mice in these groups were calculated every week in the same manner as in Example 1 and total IgE amount in plasma was measured once every other week.

The next assay relates to NC/Nga mice. The experiment in a line: Disease score of NC/Nga mice (AD model), oral administration. It is filed as in vivo, mouse. From the text: As a model animal, NC/Nga mouse was used. The NC/Nga mouse is an inbred mouse established in 1957, which is originated from “[…]” mouse, a pet mouse. Long since, it has been known that this mouse is sensitive to X-rays and to ovalbumin-caused anaphylactic shocks. […] Such AD-like phenotype occurs in the ordinary environment but not in a SPF (specific pathogen-free) environment where neither microorganism nor parasite exists, so that the onset of the disease can be controlled. In this view, the mouse was used as a disease model of atopic dermatitis in carrying out the present invention As the model animal, 5-week-old male NC/Nga mice bred in SPF environment, presenting neither dermatitis-like feature nor hyperIgE syndrome were used. To these mice, GLA ethyl ester (degree of purification of 95.98%: manufactured by Idemitsu Material Co., Ltd.) was administered by a stomach tube method in a dosage of 50 mg/individual once every other day starting from 5-week-old to obtain a GLA-administered group composed of 6 animals. On the other hand, as a control, PBS (phosphate buffered saline) instead of GLA ethyl ester was likewise administered in a dosage of 50 μg/individual to obtain a control group composed of 6 animals. In each week from the onset of administration (5 weeks old) up to 19 weeks old, the disease scores of the above-mentioned mice were converted into points according to the method of Matsuda et al. (Int. Immunol., 9, 461-466, 1997). A concrete method is described below. The following 5 items from A to E were scored by a three point full mark scoring system of 0 (none), 1 (slightly aggravated), 2 (moderately aggravated), and 3 (considerably aggravated). In total, 15 points make a full score. […] B (erythema, bleeding); Bleeding from ears and face and erythema on the back of ears were scored. C (edema): Mainly, degree of swelling of ears was scored. D (abrasions, erosion): Abrasions around the face, on the back of ears, and at around the base of arm were scored. E (dryness): Degree of dry skin from the back to the face was scored. As the model animal, 5-week-old male NC/Nga mice bred in SPF environment, presenting neither dermatitis-like feature nor hyperIgE syndrome were used. The animals were divided into each group composed of 10 animals. For the GLA-administered group, GLA ethyl ester (degree of purification of 95.98%: manufactured by Idemitsu Material Co., Ltd.) was administered by a stomach tube method in a dosage of 0.1 mg/individual once every other day. Administration of GLA was performed by using, olive oil containing little essential fatty acid which was added to 0.1 mg of GLA ethyl ester to make 50 μl. For the control group, 50 μl of olive oil alone was likewise administered. The disease score of mice in these groups were calculated every week in the same manner as in Example 1 and total IgE amount in plasma was measured once every other week.

In assay [2] the test system is spleen cells of NC/Nga mice. To be noted: BrdU 60-72 hours. As for the experimental part: Here, the addition of GLA was performed by diluting it with ethanol to appropriate concentrations and making the final concentration of ethanol to be 0.1%.
[3] abbreviates: oral administration of olive oil containing 0.1 mg GLA ethyl ester.

Where two headings read alike, the source gives them in different places.

Consider `CCCCC/C=C\C/C=C\C/C=C\CCCCC(=O)O` [GLA, γ-linolenic acid], for which the “amount of totally produced IgE compared to no-GLA-added lot” value in assay [1] (GLA 40 μg/ml added after 0 hour of culture) was “about one tenth”. For the same compound, in assay [1] (GLA 20 to 60 μμg/ml added after 0 hour), the “degree of decrease in total IgE amount produced versus decrease in cell proliferation” value is “significantly greater”. Further, the “inhibition of IgE production, dependence on concentration” value in assay [1] (GLA added after 0 hour of culture, 0-160 μg/ml, supernatant after 7 days) is on record as “inhibits IgE production dose-dependently”. The “inhibition of IgE production (IgE amount in culture supernatant)” value in assay [1] (GLA added after 0 hour of culture, 120 μg/ml, supernatant after 7 days) is reported as “complete inhibition of the IgE production”; in assay [1] (GLA added after 48 hours of culture, above 120 μg/ml) it was “not complete but significant inhibition”; in assay [1] (GLA added after 48 hours of culture, up to 80 μg/ml) it was “no IgE inhibition was observed”; in assay [1] (GLA added after 72 hours of culture, at the added concentrations measured (10-160 μg/ml)), “no significant inhibition of IgE production was observed”. Moreover, the “inhibition of IgE production in vivo” value in the assay with IgE (2 month-long oral administration to AD-suffering NC/Nga mice with hyperIgE syndrome) is recorded as “no inhibition of IgE production”. Further, in the assay on IgE (GLA ethyl ester 0.1 mg/individual in olive oil, once every other day, at week 13 and thereafter), the “increase of total IgE amount in plasma with time” value was “no significant increase was observed”. For the same compound, the “total IgE amount in plasma compared with control group” value in the assay with IgE (GLA ethyl ester 0.1 mg/individual in olive oil, once every other day, vs olive oil control, week 13 to week 19) is listed as “significantly low values”; in the assay on IgE (GLA ethyl ester 50 mg/individual, once every other day, vs PBS control, each measurement period (weeks 5, 7, 9, 11)), “low in total IgE amount”; with IgE (GLA ethyl ester 50 mg/individual, once every other day, vs PBS control, week 11), “significantly low”. Moreover, in the assay with NC/Nga mice (GLA ethyl ester 0.1 mg/individual in olive oil, stomach tube, once every other day, vs olive oil control, week 9 or thereafter), the “average disease score compared with control group” value is reported as “low average scores”. The “disease score compared with control group” value in the assay on NC/Nga mice (GLA ethyl ester 0.1 mg/individual in olive oil, stomach tube, once every other day, vs olive oil control, weeks 15 to 17) is listed as “significantly low scores”; in the assay with NC/Nga mice (GLA ethyl ester 50 mg/individual, stomach tube, once every other day from 5 weeks old, vs PBS control, week 11 and weeks 13 to 19), “significant inhibition of the disease score”. Further, in the assay with NC/Nga mice (GLA ethyl ester 50 mg/individual, stomach tube, once every other day, at week 11 or thereafter), the “increase of disease score with time” value was “no significant increase was observed”. Moreover, the “cell proliferation potency with increase of added GLA concentration” value in assay [2] (GLA 0-160 μg/ml added after 0 hour) is “a decrease in the cell proliferation potency was observed”. For the same compound, in assay [2] (GLA 40 μg/ml added after 0 hour), the “cell proliferation compared to no-GLA-added lot” value is “did not substantially decrease”.
Take `CCCCC/C=C\C/C=C\C/C=C\CCCCC(=O)OCC` [GLA ethyl ester]: the “IgE amount (summary of Example 2)” value with IgE (setting [3]) is “significantly low”. In addition, in the assay with NC/Nga mice (setting [3]), the “disease score (summary of Example 2)” value is “significantly low”.
